Reference: ChEMBL document CHEMBL4130591, “2-Arylidene Hydrazinecarbodithioates as Potent, Selective Inhibitors of Cystathionine γ-Lyase (CSE)” (ACS Med Chem Lett, 2017)
Activity calls are given as the source filed them. The rule behind the calls is not given here.

Experiments:
[1] = molecular target: T1, Cystathionine gamma-lyase (Homo sapiens, UniProt P32929); assay: Inhibition of cystathionine gamma-lyase (unknown origin) assessed as reduction in cysteine formation from CPM using L-cystathionine pre-incubated for 15 min followed by L-cystathionine and CPM addition and measured after 7 mins by fluorescence-based primary assay
Homo sapiens = organism: Homo sapiens; assay: Selectivity for cystathionine gamma-lyase (unknown origin) over human recombinant CBS
[2] = molecular target: T1, Cystathionine gamma-lyase; assay: Inhibition of cystathionine gamma-lyase (unknown origin)
[3] = molecular target: T1, Cystathionine gamma-lyase; assay: Inhibition of cystathionine gamma-lyase (unknown origin) assessed as reduction in cysteine formation from CPM at 40 uM using L-cystathionine incubated for 7 mins by fluorescence-based primary assay
[4] = molecular target: T1, Cystathionine gamma-lyase; assay: Inhibition of cystathionine gamma-lyase (unknown origin) assessed as reduction in H2S production at 40 uM using AzMC probe by fluorescence based assay
[5] = molecular target: T2, Cystathionine beta-synthase (Homo sapiens) (UniProt P35520); assay: Inhibition of human recombinant CBS assessed as reduction in H2S production at 40 uM using AzMC probe by fluorescence based assay
T2 sequence (whole entry): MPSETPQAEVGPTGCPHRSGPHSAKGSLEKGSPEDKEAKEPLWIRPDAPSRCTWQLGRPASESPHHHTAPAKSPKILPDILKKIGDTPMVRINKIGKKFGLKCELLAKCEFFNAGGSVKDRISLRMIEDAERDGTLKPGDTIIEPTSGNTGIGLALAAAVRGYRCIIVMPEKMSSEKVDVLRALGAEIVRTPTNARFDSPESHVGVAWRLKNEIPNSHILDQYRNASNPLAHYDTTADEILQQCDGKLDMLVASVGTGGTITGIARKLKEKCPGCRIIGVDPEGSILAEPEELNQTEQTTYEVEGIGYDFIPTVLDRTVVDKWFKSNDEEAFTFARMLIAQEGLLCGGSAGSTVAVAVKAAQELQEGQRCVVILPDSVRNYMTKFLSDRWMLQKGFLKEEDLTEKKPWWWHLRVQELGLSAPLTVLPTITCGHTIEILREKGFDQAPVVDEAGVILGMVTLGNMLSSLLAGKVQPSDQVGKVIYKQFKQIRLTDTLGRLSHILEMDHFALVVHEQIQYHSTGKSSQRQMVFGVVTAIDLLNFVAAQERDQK

[6] = molecular target: T1, Cystathionine gamma-lyase; assay: Reversible inhibition of cystathionine gamma-lyase (unknown origin) assessed as reduction in cysteine formation from CPM using L-cystathionine at 50 uM incubated for 2 hrs followed by dialysis for 18 to 48 hrs by fluorescence-based primary assay

T1 sequence (P32929 whole entry): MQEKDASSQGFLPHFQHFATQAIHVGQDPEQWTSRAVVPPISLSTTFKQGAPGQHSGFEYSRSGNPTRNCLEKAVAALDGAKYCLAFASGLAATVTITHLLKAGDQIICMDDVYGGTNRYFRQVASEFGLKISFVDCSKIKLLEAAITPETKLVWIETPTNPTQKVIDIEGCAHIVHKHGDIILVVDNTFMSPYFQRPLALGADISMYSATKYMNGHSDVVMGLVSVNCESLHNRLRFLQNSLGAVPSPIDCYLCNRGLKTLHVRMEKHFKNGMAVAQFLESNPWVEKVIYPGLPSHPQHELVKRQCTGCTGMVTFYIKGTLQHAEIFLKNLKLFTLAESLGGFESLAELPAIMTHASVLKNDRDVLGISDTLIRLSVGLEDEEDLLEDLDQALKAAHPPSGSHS

| SMILES | IC50 [1] | also measured |
| --- | --- | --- |
| CC(C)(C)c1ccc(NC(=O)CSC(=S)N/N=C/c2ncccc2F)cc1 | 2 µM |  |
| CSC(=S)N/N=C/c1ccncc1 | 40 µM |  |
| Cc1ccc(NC(=O)CSC(=S)N/N=C/c2nn(C)cc2Cl)cc1 | 3 µM |  |
| CSC(=S)N/N=C/c1ncccc1C | 6 µM |  |
| Cc1ccc(NC(=O)CSC(=S)N/N=C/c2cccc(C)n2)cc1 | 3.5 µM |  |
| O=C(CSC(=S)N/N=C/c1ccccn1)Nc1cccc(Br)c1 | > 100 µM |  |
| COc1ccc(NC(=O)CSC(=S)N/N=C/c2ncccc2F)cc1 | 1.2 µM | Selectivity ratio (Homo sapiens): 400 |
| COc1ccc(NC(=O)CSC(=S)N/N=C/c2ccc(Br)cn2)cc1 | > 100 µM |  |
| CSC(=S)N/N=C/c1ncccc1F | 5 µM |  |
| Cc1ccc(NC(=O)CSC(=S)N/N=C/c2ncccc2C)cc1 | 2.5 µM |  |
| COc1ccc(NC(=O)CSC(=S)N/N=C/c2nn(C)cc2Cl)cc1 | 2.7 µM |  |
| CS/C(S)=N/N=C(\C)c1ccccn1 | > 100 µM |  |
| CSC(=S)N/N=C/c1cc[nH]n1 | 15 µM |  |
| NCCO/C=C/[C@H](N)C(=O)O |  | IC50 [2]: 1.1 µM |
| O=C(CSC(=S)N/N=C/c1ncccc1F)Nc1ccc(C(F)(F)F)cc1 | 6 µM |  |
| N=C1C=C(N)C(=O)c2[nH]c(=O)ccc21 |  | IC50 [2]: 6.3 µM |
| CC(C)(S)[C@@H](N)C(=O)O [PENICILLAMINE] |  | IC50 [2]: 270 µM |
| COc1ccc(NC(=O)CSC(=S)N/N=C/c2cscn2)cc1 | 2.1 µM |  |
| Cc1ccc(NC(=O)CSC(=S)N/N=C/c2cccc(Br)n2)cc1 | 10 µM |  |
| CSC(=S)N/N=C/c1ccccn1 | 6 µM |  |
| CC(C)(C)c1ccc(NC(=O)CSC(=S)N/N=C/c2cccc(Br)n2)cc1 | 15 µM |  |
| CSC(=S)N/N=C/c1cnccn1 | 15 µM |  |
| CSC(=S)N/N=C/c1cc2ccccc2n1C | > 100 µM |  |

| SMILES | IC50 [1] | also measured |
| --- | --- | --- |
| CC(C)(C)c1ccc(NC(=O)CSC(=S)N/N=C/c2ccncc2)cc1 | 40 µM |  |
| Cc1ccc(NC(=O)CSC(=S)N/N=C/c2ncccc2F)cc1 | 2 µM |  |
| CSC(=S)N/N=C/c1cscn1 | 7 µM |  |
| Cc1cccc(/C=N/NC(=S)SCC(=O)Nc2ccc(C(C)(C)C)cc2)n1 | 6 µM |  |
| O=C(CSC(=S)N/N=C/c1ccccn1)Nc1ccccc1 | 6 µM |  |
| CC(C)(C)c1ccc(NC(=O)CSC(=S)N/N=C/c2cnccn2)cc1 | > 100 µM |  |
| Cc1ccc(NC(=O)CSC(=S)N/N=C/c2ccccn2)cc1 | 2 µM |  |
| CSC(=S)N/N=C/c1cccc(Br)n1 | 12 µM |  |
| C#CCNC(=O)[C@H]1CSC(=O)N1 |  | IC50 [2]: 30 µM |
| CC(C)(C)c1ccc(NC(=O)CSC(=S)N/N=C/c2cccnc2)cc1 | 12 µM |  |
| CC(C)(C)c1ccc(NC(=O)CSC(=S)N/N=C/c2ccccn2)cc1 | 3 µM |  |
| Cc1ccc(NC(=O)CSC(=S)N/N=C/c2cccnc2)cc1 | 25 µM |  |
| CSC(=S)N/N=C/c1ccc(Br)cn1 | 10 µM |  |
| COc1ccc(NC(=O)CSC(=S)N/N=C/c2ccccn2)cc1 | 2 µM |  |
| CSC(=S)N/N=C/c1c[nH]c2ccccc12 | > 100 µM |  |
| COc1ccc(NC(=O)CSC(=S)N/N=C/c2cccc(C)n2)cc1 | 1.9 µM |  |
| O=C(CSC(=S)N/N=C/c1ccccn1)Nc1ccc(F)cc1 | > 100 µM |  |
| CSC(=S)N/N=C/c1cccnc1 | 50 µM |  |
| CSC(=S)N/N=C/c1nn(C)cc1Cl | 6 µM |  |
| CSC1=NNC(c2ccccn2)S1 (stereo not given) | 6 µM | inhibition [3]: > 30%; inhibition [4]: Active; inhibition [5]: inactive; inhibition [6]: Active |
| CSC(=S)N/N=C/c1cccc(C)n1 | 5 µM |  |
| Cn1cc(Cl)c(/C=N/NC(=S)SCC(=O)Nc2ccc(C(C)(C)C)cc2)n1 | 6 µM |  |
